Reference: patent US20100285959A1, “HERBICIDAL MIXTURES” (priority 2006, published 2010)

What was measured:
[1] = system: field violet (VIOAR); experiment: Test 21 growth chamber, postemergence; type: in vivo, Viola arvensis; details: 19 DAA
Protocol: (§1) A test was conducted to evaluate the effects on winter barley (HORVW, Hordeum vulgare L.), winter wheat (TRZAW, Triticum aestivum L.), and several weed species, of mixtures of Compound 2 with the commercial herbicide (2,4-dichlorophenoxy)acetic acid (2,4-D), an auxin mimic. […] Plants were treated postemergence at the 2-4 leaf growth stage, and each treatment was replicated one time. […] Plants were watered as needed. […] Results are from single replicates.

[2] = system: winter wheat (TRZAW); experiment: Test 22 growth chamber, postemergence; type: in vivo, Triticum aestivum; details: 25 DAA
Protocol: as §1, with “species” for “species,”, “herbicides” for “herbicide”, “(2,4-D) and (4-chloro-2-methylphenoxy)acetic acid (MCPA),” for “(2,4-D), an”, “mimics.” for “mimic.”, “stage, except KCHSC, SASKR” for “stage,”, “STEME which were in the 4-8 leaf growth stage. Each” for “each”

[3] = system: Russian thistle (SASKR); experiment: Test 21 growth chamber, postemergence; type: in vivo, Salsola kali; details: 19 DAA
Protocol: as §1

[4] = system: galium (GALAP); experiment: Test 22 growth chamber, postemergence; type: in vivo, Galium aparine; details: 25 DAA
Protocol: as §1, with “species” for “species,”, “herbicides” for “herbicide”, “(2,4-D) and (4-chloro-2-methylphenoxy)acetic acid (MCPA),” for “(2,4-D), an”, “mimics.” for “mimic.”, “stage, except KCHSC, SASKR” for “stage,”, “STEME which were in the 4-8 leaf growth stage. Each” for “each”

[5] = system: winter wheat (TRZAW); experiment: Test 23 growth chamber, postemergence; type: in vivo, Triticum aestivum; details: 21 DAA
Protocol: as §1, with “species” for “species,”, “herbicides” for “herbicide”, “(2,4-D) and (4-chloro-2-methylphenoxy)acetic acid (MCPA),” for “(2,4-D), an”, “mimics.” for “mimic.”, “three times.” for “one time.”, “means of the three” for “from single”

[6] = system: velvetleaf (ABUTH); experiment: Test 2 field trial, preemergence; type: in vivo, Abutilon theophrasti; design: scale not given here
Excerpt: (§2) Corn seeds (hybrid ‘Pioneer 31G96’) were planted in mid spring season, 3.8 cm deep in a clay loam soil having 2% organic matter and a pH of 6.6. Plots were 6.1 m long by 3.0 m wide with rows spaced 76 cm apart. Seeds were spaced 15 cm apart within the rows. The field was managed using conventional tillage practices. […] A few of the weed species could not be evaluated at every timing. […] Results are the means of the three replicates.

[7] = system: giant foxtail (SETFA); experiment: Test 2 field trial, preemergence; type: in vivo, Setaria faberi; design: scale not given here
Excerpt: as §2

[8] = system: Florida beggarweed (DEDTO); experiment: Test 12 field trial, preemergence; type: in vivo, Desmodium tortuosum; design: scale not given here; details: Cpd 2 or Cpd 1 62 g a.i./ha, Diuron 2000 g a.i./ha
Excerpt: In early-mid spring season, corn seeds (hybrid ‘Pioneer 3041’) were planted 5 cm deep and sugarcane nodes (variety RB-72.454) were planted 10 cm deep in separate plots in a clay soil having 2.6% organic matter and a pH of 5.6. Plots were 24 m long by 1.5 m wide with rows spaced 80 cm (corn) or 140 cm (sugarcane) apart. Corn seeds were spaced 15 cm apart and sugarcane nodes were spaced 10 cm apart within the rows. At the same time, weed seeds were broadcast over the surface of separate plots without a crop, one weed species per plot. The weed plots were rotary tilled to incorporate the weed seeds to a variety of depths. The field was managed using conventional tillage practices.

[9] = system: jimsonweed (DATST); experiment: Test 7 field trial, preemergence; type: in vivo, Datura stramonium
Protocol: (§3) Plots were 7.6 m long by 3.0 m wide with rows spaced 76 cm apart. Seeds were spaced 15 cm apart within the rows. The field was managed using conventional tillage practices. […] Wild radish was evaluated 14 and 28 days after application. […] Results are the means of the three replicates.

[10] = system: annual grasses (GGGAN); experiment: Test 7 field trial, preemergence; type: in vivo, Gramineae
Protocol: as §3

[11] = system: common lambsquarters (CHEAL); experiment: Test 9 field trial, emerged weeds before corn planting; type: in vivo, Chenopodium album; details: 57 DAA; g a.i./ha: Cpd 2 100, Glyphosate 1540, Paraquat 1150
Protocol: Corn seeds (hybrid ‘Pioneer 34M91 RR’) were planted in mid spring season, about 3.8 cm deep in a silty clay loam soil having a pH of 6.7. Plots were 9.1 m long by 3.0 m. The field was managed using no-till practices. […] Compound 2 and paraquat treatments, alone and in combination, also included a surfactant. Glyphosate, alone and with Compound 2, included ammonium sulfate in the treatment mixture. […] The effects on the weeds in the treated plots and untreated control plots were recorded 7, 14, 23, 30 and 57 days after application. Most of the weed species could not be evaluated at every timing. Corn response was only evaluated 57 days after application. […] Results are the means of the three replicates.

[12] = 2,4-D or MCPA alone 250 g a.i./ha
[13] = 18 DAA, g a.i./ha: Cpd 2 25, Atrazine 250
[14] = 18 DAA, g a.i./ha: Cpd 2 50, Atrazine 500
[15] = 18 DAA, g a.i./ha: Cpd 2 75, Atrazine 750
[16] = 18 DAA, g a.i./ha: Cpd 2 100, Atrazine 1000
[17] = 18 DAA, g a.i./ha: Cpd 2 150, Atrazine 1500
[18] = 28 DAA, g a.i./ha: Cpd 2 25, Atrazine 250
[19] = 28 DAA, g a.i./ha: Cpd 2 50, Atrazine 500
[20] = 28 DAA, g a.i./ha: Cpd 2 75, Atrazine 750
[21] = 28 DAA, g a.i./ha: Cpd 2 100, Atrazine 1000
[22] = 28 DAA, g a.i./ha: Cpd 2 150, Atrazine 1500
[23] = 55 DAA, g a.i./ha: Cpd 2 25, Atrazine 250
[24] = 55 DAA, g a.i./ha: Cpd 2 50, Atrazine 500
[25] = 55 DAA, g a.i./ha: Cpd 2 75, Atrazine 750
[26] = 55 DAA, g a.i./ha: Cpd 2 100, Atrazine 1000
[27] = 55 DAA, g a.i./ha: Cpd 2 150, Atrazine 1500

SMILES: O=C(O)COc1ccc(Cl)cc1Cl [2,4-D, (2,4-dichlorophenoxy)acetic acid]
- Postemergence VIOAR Obs ([1]; 2,4-D alone 125 g a.i./ha): 0
- Postemergence VIOAR Obs ([1]; 2,4-D alone 250 g a.i./ha): 20
- Postemergence TRZAW Obs [2, 12]: 20
- Postemergence SASKR Obs ([3]; 2,4-D alone 125 g a.i./ha): 60
- Postemergence SASKR Obs ([3]; 2,4-D alone 250 g a.i./ha): 55
- Postemergence GALAP Obs [4, 12]: 30
- Postemergence TRZAW Obs [5, 12]: 20

SMILES: CCNc1nc(Cl)nc(NC(C)C)n1 [Atrazine, atrazine, reference compound]
- ABUTH Obs [6, 13]: 15
- ABUTH Obs [6, 14]: 45
- ABUTH Obs [6, 15]: 55
- ABUTH Obs [6, 16]: 62
- ABUTH Obs [6, 17]: 64
- ABUTH Obs [6, 18]: 37
- ABUTH Obs [6, 19]: 78
- ABUTH Obs [6, 20]: 85
- ABUTH Obs [6, 21]: 98
- ABUTH Obs [6, 22]: 99
- ABUTH Obs [6, 23]: 68
- ABUTH Obs [6, 24]: 63
- ABUTH Obs [6, 25]: 87
- ABUTH Obs [6, 26]: 100
- ABUTH Obs [6, 27]: 99
- SETFA Obs [7, 13]: 20
- SETFA Obs [7, 14]: 25
- SETFA Obs [7, 15]: 40
- SETFA Obs [7, 16]: 43
- SETFA Obs [7, 17]: 38
- SETFA Obs [7, 18]: 37
- SETFA Obs [7, 19]: 67
- SETFA Obs [7, 20]: 83
- SETFA Obs [7, 21]: 87
- SETFA Obs [7, 22]: 88
- SETFA Obs [7, 23]: 35
- SETFA Obs [7, 24]: 60
- SETFA Obs [7, 25]: 58
- SETFA Obs [7, 26]: 65
- SETFA Obs [7, 27]: 80

SMILES: Nc1nc(C2CC2)nc(C(=O)O)c1Cl [Compound 1, 6-amino-5-chloro-2-cyclopropyl-4-pyrimidinecarboxylic acid]
- DEDTO Obs ([8]; 15 DAA): 95
- DEDTO Obs ([8]; 29 DAA): 75
- DEDTO Obs ([8]; 48 DAA): 60
- DEDTO Obs ([8]; 61 DAA): 60

SMILES: COC(=O)c1nc(C2CC2)nc(N)c1Cl [Compound 2, methyl 6-amino-5-chloro-2-cyclopropyl-4-pyrimidinecarboxylate]
- Postemergence VIOAR Obs ([1]; Cpd 2 alone 16 g a.i./ha): 60
- DATST Obs ([9]; 14 DAA, 125 g a.i./ha): 98%
- DATST Obs ([9]; 14 DAA, 250 g a.i./ha): 98%
- DATST Obs ([9]; 14 DAA, 500 g a.i./ha): 100%
- DATST Obs ([9]; 28 DAA, 125 g a.i./ha): 98%
- DATST Obs ([9]; 28 DAA, 250 g a.i./ha): 98%
- DATST Obs ([9]; 28 DAA, 500 g a.i./ha): 100%
- DATST Obs ([9]; 62 DAA, 125 g a.i./ha): 100%
- DATST Obs ([9]; 62 DAA, 500 g a.i./ha): 100%
- DEDTO Obs ([8]; 15 DAA): 100
- DEDTO Obs ([8]; 29 DAA): 70
- DEDTO Obs ([8]; 48 DAA): 80
- DEDTO Obs ([8]; 61 DAA): 60
- Postemergence TRZAW Obs ([2]; Cpd 2 alone 4 g a.i./ha): 30
- Postemergence TRZAW Obs ([2]; Cpd 2 alone 8 g a.i./ha): 35
- Postemergence TRZAW Obs ([2]; Cpd 2 alone 16 g a.i./ha): 40
- Postemergence SASKR Obs ([3]; Cpd 2 alone 16 g a.i./ha): 65
- Postemergence GALAP Obs ([4]; Cpd 2 alone 4 g a.i./ha): 65
- Postemergence GALAP Obs ([4]; Cpd 2 alone 8 g a.i./ha): 90
- Postemergence GALAP Obs ([4]; Cpd 2 alone 16 g a.i./ha): 100
- ABUTH Obs [6, 13]: 13
- ABUTH Obs [6, 14]: 28
- ABUTH Obs [6, 15]: 45
- ABUTH Obs [6, 16]: 45
- ABUTH Obs [6, 17]: 52
- ABUTH Obs [6, 18]: 13
- ABUTH Obs [6, 19]: 18
- ABUTH Obs [6, 20]: 65
- ABUTH Obs [6, 21]: 63
- ABUTH Obs [6, 22]: 73
- ABUTH Obs [6, 23]: 38
- ABUTH Obs [6, 24]: 55
- ABUTH Obs [6, 25]: 63
- ABUTH Obs [6, 26]: 68
- ABUTH Obs [6, 27]: 78
- GGGAN Obs ([10]; 14 DAA, 125 g a.i./ha): 33%
- GGGAN Obs ([10]; 14 DAA, 250 g a.i./ha): 65%
- GGGAN Obs ([10]; 14 DAA, 500 g a.i./ha): 67%
- GGGAN Obs ([10]; 28 DAA, 125 g a.i./ha): 33%
- GGGAN Obs ([10]; 28 DAA, 250 g a.i./ha): 48%
- GGGAN Obs ([10]; 28 DAA, 500 g a.i./ha): 52%
- GGGAN Obs ([10]; 62 DAA, 125 g a.i./ha): 0%
- GGGAN Obs ([10]; 62 DAA, 250 g a.i./ha): 0%
- GGGAN Obs ([10]; 62 DAA, 500 g a.i./ha): 0%
- SETFA Obs [7, 13]: 13
- SETFA Obs [7, 14]: 22
- SETFA Obs [7, 15]: 32
- SETFA Obs [7, 16]: 35
- SETFA Obs [7, 17]: 43
- SETFA Obs [7, 18]: 5
- SETFA Obs [7, 19]: 10
- SETFA Obs [7, 20]: 30
- SETFA Obs [7, 21]: 23
- SETFA Obs [7, 22]: 65
- Postemergence TRZAW Obs ([5]; Cpd 2 alone 4 g a.i./ha): 35
- Postemergence TRZAW Obs ([5]; Cpd 2 alone 8 g a.i./ha): 38
- Postemergence TRZAW Obs ([5]; Cpd 2 alone 16 g a.i./ha): 43
- CHEAL Obs [11]: 95%

SMILES: O=C(O)CNCP(=O)(O)O [Glyphosate]
- CHEAL Obs [11]: 0%

SMILES: CCc1cccc(C)c1N(C(=O)CCl)[C@@H](C)COC [S-Metolachlor, S-metolachlor, reference compound]
- DATST Obs ([9]; 14 DAA, 1000 g a.i./ha): 65%
- DATST Obs ([9]; 28 DAA, 1000 g a.i./ha): 57%
- DATST Obs ([9]; 62 DAA, 1000 g a.i./ha): 0%
- GGGAN Obs ([10]; 14 DAA, 1000 g a.i./ha): 97%
- GGGAN Obs ([10]; 28 DAA, 1000 g a.i./ha): 93%
- GGGAN Obs ([10]; 62 DAA, 1000 g a.i./ha): 75%
